Data set [1] deals with Tyrosine-protein kinase JAK2 (Homo sapiens) (UniProt O60674). Description: Inhibition of IL-6-induced JAK2 phosphorylation at Tyr1007/1008 residues in human U266 cells at 10 and 20 uM pre-incubated for 1 hr before IL-6 stimulation for 10 to 15 mins by Western blot analysis. It counts as cell-based. A general note: In western blotting, separated proteins are transferred to a membrane and probed.

Data set [2] concerns Hep 3B2. Description: Inhibition of IL-6-induced SOCS3 gene expression in human Hep3B cells pre-incubated for 1 hr before IL-6 stimulation for 6 hrs by RT-PCR method. Format: functional, cell-based.
The target in data set [3] is Signal transducer and activator of transcription 3 (Homo sapiens) (UniProt P40763). Description: Inhibition of IL6-induced STAT3 phosphorylation in human Hep3B cells incubated for 12 hrs in presence of IL6 by luciferase reporter gene assay. Format: cell-based. On the technique in general: In a reporter assay the amount or activity of a reporter protein is the signal.
Sequence of Signal transducer and activator of transcription 3 (Homo sapiens) (P40763 whole entry): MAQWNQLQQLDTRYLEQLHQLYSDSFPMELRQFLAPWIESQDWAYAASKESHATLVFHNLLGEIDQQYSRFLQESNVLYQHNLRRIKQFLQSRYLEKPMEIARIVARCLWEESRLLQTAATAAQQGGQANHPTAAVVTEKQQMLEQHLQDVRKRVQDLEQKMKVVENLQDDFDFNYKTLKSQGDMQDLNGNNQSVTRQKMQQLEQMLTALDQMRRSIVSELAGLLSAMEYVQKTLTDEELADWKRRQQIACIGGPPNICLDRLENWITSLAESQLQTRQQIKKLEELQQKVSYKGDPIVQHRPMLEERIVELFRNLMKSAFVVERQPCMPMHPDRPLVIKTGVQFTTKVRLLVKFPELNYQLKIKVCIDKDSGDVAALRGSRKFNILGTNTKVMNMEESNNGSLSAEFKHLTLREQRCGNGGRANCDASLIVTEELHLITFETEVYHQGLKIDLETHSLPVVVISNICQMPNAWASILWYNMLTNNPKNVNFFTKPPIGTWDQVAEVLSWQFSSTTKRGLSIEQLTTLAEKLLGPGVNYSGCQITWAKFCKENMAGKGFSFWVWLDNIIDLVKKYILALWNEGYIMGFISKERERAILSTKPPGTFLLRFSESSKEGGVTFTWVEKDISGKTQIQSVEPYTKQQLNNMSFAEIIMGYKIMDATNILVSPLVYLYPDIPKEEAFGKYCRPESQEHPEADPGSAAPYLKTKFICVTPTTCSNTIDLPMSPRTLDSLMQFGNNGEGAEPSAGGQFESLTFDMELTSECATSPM

Data set [4] deals with Hep 3B2. Description: Inhibition of IL-6-induced CRP gene expression in human Hep3B cells pre-incubated for 1 hr before IL-6 stimulation for 6 hrs by RT-PCR method. It counts as functional, cell-based.
The subject of data set [5] is Hep 3B2. Description: Inhibition of IL-6-induced ICAM1 gene expression in human Hep3B cells pre-incubated for 1 hr before IL-6 stimulation for 6 hrs by RT-PCR method. Format: functional, cell-based.
Data set [6] relates to Hep 3B2. Description: Cytotoxicity against human Hep3B cells assessed as cell viability at 1 to 20 uM incubated for 24 hrs by MTT assay. Format: cell-based. Conditions: hep 3b2, 24 h. On the technique in general: Tetrazolium assays rely on reduction of a dye to a coloured formazan, in cell work by metabolically active cells.
Data set [7] concerns the target Signal transducer and activator of transcription 3 (Homo sapiens) (UniProt P40763). Description: Inhibition of IL-6-induced pSTAT3 nuclear translocation in human Hep3B cells at 10 and 20 uM pre-incubated for 1 hr before IL-6 stimulation for 30 mins by DAPI staining based immunofluorescence microscopy. It counts as cell-based.
The species entered for data set [8] is Homo sapiens. Description: Inhibition of IL-6 binding to human recombinant soluble IL-6R incubated for 2 hrs by solid phase ligand binding assay.
For data set [9], the target named is T1, Interleukin-6 receptor subunit beta (Homo sapiens) (UniProt P40189).
T1 sequence (whole entry): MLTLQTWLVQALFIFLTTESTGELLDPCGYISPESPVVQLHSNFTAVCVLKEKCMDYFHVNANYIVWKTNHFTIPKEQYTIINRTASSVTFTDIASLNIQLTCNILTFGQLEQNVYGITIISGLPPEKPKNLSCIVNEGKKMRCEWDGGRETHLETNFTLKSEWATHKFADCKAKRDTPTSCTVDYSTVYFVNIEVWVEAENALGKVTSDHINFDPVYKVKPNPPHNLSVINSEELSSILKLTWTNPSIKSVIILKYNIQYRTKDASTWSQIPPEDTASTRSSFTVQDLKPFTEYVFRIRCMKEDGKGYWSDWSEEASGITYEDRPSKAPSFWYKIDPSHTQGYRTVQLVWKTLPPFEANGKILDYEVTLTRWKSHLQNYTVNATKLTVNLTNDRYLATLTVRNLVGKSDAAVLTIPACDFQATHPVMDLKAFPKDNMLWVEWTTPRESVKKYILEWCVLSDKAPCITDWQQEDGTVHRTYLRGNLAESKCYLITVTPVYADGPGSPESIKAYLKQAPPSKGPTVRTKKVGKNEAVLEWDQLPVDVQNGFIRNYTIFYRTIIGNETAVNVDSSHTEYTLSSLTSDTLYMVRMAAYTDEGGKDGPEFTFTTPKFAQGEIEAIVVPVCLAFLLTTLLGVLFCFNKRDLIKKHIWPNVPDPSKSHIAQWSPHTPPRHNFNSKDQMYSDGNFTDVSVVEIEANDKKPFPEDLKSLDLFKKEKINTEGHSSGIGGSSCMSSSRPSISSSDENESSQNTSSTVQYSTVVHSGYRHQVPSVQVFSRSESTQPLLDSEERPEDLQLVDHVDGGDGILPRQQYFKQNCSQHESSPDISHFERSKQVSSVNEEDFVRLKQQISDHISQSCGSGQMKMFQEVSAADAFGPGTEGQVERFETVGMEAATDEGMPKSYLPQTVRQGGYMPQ
Description: Inhibition of IL-6-induced gp130 phosphorylation in human U266 cells at 10 and 20 uM pre-incubated for 1 hr before IL-6 stimulation for 10 to 15 mins by Western blot analysis. It counts as cell-based.

The species named for data set [10] is Homo sapiens. Description: Inhibition of IL-6-induced ERK phosphorylation at Tyr202/204 residues in human U266 cells at 10 to 20 uM pre-incubated for 1 hr before IL-6 stimulation for 10 to 15 mins by Western blot analysis. Format: cell-based.
The subject of data set [11] is Hep 3B2. Description: Inhibition of IL-6-induced IL-1beta gene expression in human Hep3B cells pre-incubated for 1 hr before IL-6 stimulation for 6 hrs by RT-PCR method. Format: functional, cell-based.
The target of data set [12] is Signal transducer and activator of transcription 3 (Homo sapiens) (UniProt P40763). Description: Inhibition of IL-6-induced pSTAT3 nuclear translocation in human U266 cells at 20 uM pre-incubated for 1 hr before IL-6 stimulation for 30 mins by DAPI staining based immunofluorescence microscopy. It counts as cell-based.
For data set [13] the target is unchanged. Description: Inhibition of IL-6-induced STAT3 phosphorylation at Tyr 705 residue in human U266 cells at 10 to 20 uM pre-incubated for 1 hr before IL-6 stimulation for 15 mins by Western blot analysis. It counts as cell-based.

The results in this text go back to ChEMBL document CHEMBL4387725, “In vitro inhibitory effects of cirsiliol on IL-6-induced STAT3 activation through anti-inflammatory activity” (Bioorg Med Chem Lett, 2019).

Calls of active or inactive are those of the source. The rule behind the calls is not given here.

Sequence of Tyrosine-protein kinase JAK2 (Homo sapiens) (O60674 whole entry): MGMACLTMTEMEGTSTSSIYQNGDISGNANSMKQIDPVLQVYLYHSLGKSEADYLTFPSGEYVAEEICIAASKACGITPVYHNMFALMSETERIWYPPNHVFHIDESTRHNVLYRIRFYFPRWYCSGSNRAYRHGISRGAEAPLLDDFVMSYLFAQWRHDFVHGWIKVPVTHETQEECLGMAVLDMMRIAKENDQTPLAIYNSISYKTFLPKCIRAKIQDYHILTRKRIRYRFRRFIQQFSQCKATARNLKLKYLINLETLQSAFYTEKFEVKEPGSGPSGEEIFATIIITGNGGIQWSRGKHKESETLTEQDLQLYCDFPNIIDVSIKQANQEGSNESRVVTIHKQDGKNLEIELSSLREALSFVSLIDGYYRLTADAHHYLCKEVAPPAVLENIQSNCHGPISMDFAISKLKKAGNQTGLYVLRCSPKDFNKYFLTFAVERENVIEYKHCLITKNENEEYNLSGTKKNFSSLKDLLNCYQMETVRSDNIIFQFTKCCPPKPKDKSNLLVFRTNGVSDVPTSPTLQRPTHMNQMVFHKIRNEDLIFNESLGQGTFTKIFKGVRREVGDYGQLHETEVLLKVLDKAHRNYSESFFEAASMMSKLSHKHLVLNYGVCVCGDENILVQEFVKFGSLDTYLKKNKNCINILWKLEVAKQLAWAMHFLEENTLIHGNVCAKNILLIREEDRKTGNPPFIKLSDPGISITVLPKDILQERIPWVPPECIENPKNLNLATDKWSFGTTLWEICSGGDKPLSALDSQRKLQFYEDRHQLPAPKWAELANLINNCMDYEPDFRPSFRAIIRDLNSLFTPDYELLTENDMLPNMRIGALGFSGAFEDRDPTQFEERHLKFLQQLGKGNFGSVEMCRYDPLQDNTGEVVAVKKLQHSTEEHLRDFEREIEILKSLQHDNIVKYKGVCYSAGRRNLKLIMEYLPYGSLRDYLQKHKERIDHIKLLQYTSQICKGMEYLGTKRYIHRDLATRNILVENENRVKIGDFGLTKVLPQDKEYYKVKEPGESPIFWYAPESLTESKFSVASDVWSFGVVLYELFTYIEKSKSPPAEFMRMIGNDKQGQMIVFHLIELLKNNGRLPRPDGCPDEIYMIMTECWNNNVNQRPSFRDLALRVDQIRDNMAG

Take `COc1cc2oc(-c3ccc(O)c(O)c3)cc(=O)c2c(O)c1OC` [CIRSILIOL]: the inhibition entry (in [1]; with Hep 3B2 [2]; in data set [3]; in the data set with Hep 3B2 [4]; in the data set with Hep 3B2 [5]; in data set [9]) was “Dose-dependent effect” in each case. The inhibition entry in the data set with Hep 3B2 [11] is “Dose-dependent effect”. The Activity result with Hep 3B2 [6] is reported as “Non-Toxic”. Also, the inhibition entry (in [7]; in the data set filed under Homo sapiens [10]; in data set [12]; in [13]) was “Active” each time. In the data set filed under Homo sapiens [8], the inhibition result was “inactive”.
